No end group written: not given here.
Assays:
SARS-CoV-2 [1] = experiment: Treatment of patients infected by SARS-CoV-2 (RT-qPCR of nasopharyngeal swabs); type: in vivo, human; conditions: for SARS-CoV-2 negative patients/Total: chloroquine
Protocol: Human studies were conducted in accordance with the Declaration of Helsinki. […] The peptide was administered subcutaneously. The presence of SARS-CoV-2 viral RNA was determined by RT-qPCR (Roche) in nasopharyngeal swabs of the patients every 48 or 96 hours during 15 days. Four groups were formed, each with 20 patients, all in the initial stage of the disease and with similar characteristics. Group 1 patients received the most frequently used treatment in COVID-19 therapy based on Kaletra (Lopinavir/Ritonavir), chloroquine, and Heberon™ Alpha R (IFN α2b). Group 2 received this treatment, plus the peptide identified in the Sequence Listing as SEQ ID NO: 1. The latter was administered subcutaneously, at 2 mg/Kg of weight for 5 days. Group 3 patients received treatment based on Kaletra, chloroquine and a combined formulation of intramuscular IFN a2b (3.0 million international units, MIU) and IFN y (0.5 MIU). Patients in group 4 received the same treatment as Group 3, plus the peptide identified in the Sequence Listing as SEQ ID NO: 1 (2 mg/Kg of weight), subcutaneously for 5 days.

Influenza A H1N1 = type: cell-based; conditions: 50 μM; tracheo-bronchial HAE
[2] = system: Mebus strain of bovine coronavirus; experiment: Inhibition of bovine coronavirus replication in MDBK cells (CPE, viral RNA RT-qPCR); type: cell-based; conditions: MOI 0.01, 120 hours
Protocol: To evaluate the antiviral effect of this peptide, bovine kidney cells known as MDBK were seeded in 24-well plates, at 280,000 cells per well, in DMEM culture medium with 10% fetal calf serum (FBS). The plates were incubated in a humid environment at 37° C. and 5% CO2. […] Once this treatment time elapsed, the culture medium was removed and the cells were infected with the Mebus strain of bovine coronavirus for 1 hour, in 200 μL of serum-free DMEM medium, at a multiplicity of infection (MOI) of 0.01 in a humid environment at 37° C. and 5% CO2. Subsequently, the volume of each well was brought up to 1 mL with serum-free DMEM medium in the presence of the peptide. Incubation for 120 hours was carried out, and cell-culture viability was evaluated by the method of metabolic reduction of MTT. To do this, the culture medium was removed. Two-hundred microliters of MTT were added to each well, and the plate was incubated for 2 to 4 hours at 37° C., 5% CO2 and 95% humidity. Subsequently, 300 μL of isobutyl alcohol were added and the plate was shaken for 1 hour. As an alternative to the MTT method, cells were stained with crystal violet (0.1%). Finally, the absorbance in each well was determined at 570 nm in a plate reader (Amersham). The antiviral effect was expressed as percent of inhibition of the cytopathic effect (CPE) (FIG. 1A) and inhibition of viral RNA (FIG. 1B) by RT-qPCR.

[3] = biological target: T1, Dengue 2 virus capsid protein (Dengue virus type 2, UniProt P29990); experiment: BIACORE surface plasmon resonance interaction with immobilized peptide; type: binding
T1 construct: with the Dengue 2 virus capsid protein

SARS-CoV-2 [4] = conditions: 96 h, 50 μM
in vitro = conditions: pig, PK15 cells
[5] = system: vimentin intermediate filaments; experiment: Immunodetection of vimentin intermediate filaments in VeroE6 cells; type: cell-based, African green monkey; conditions: 100 μM, 24 hours
Protocol: (§1) They were then fixed and permeabilized in a solution of acetone:methanol (1:1 V/V) for 10 min at −20° C. and blocked with 1% bovine serum albumin in phosphate buffered saline for 30 min, at 37° C. Vimentin intermediate filaments were detected using a murine anti-vimentin IgG1 monoclonal antibody (4.5 μg/mL) followed by an anti-mouse antibody conjugated to fluorescein isothiocyanate (1/200). Vimentin intermediate filaments (FI) were observed distributed throughout the cytoplasm, from the perinuclear region towards one or both poles of the cell.

pAb anti-SEQ ID NO: 1 = experiment: BIACORE surface plasmon resonance interaction with immobilized peptide; type: binding, rabbit
[6] = biological target: T2, extracellular domain of the ACE2 receptor (Homo sapiens, UniProt Q9BYF1); experiment: as above; type: binding
T2 construct: the extracellular domain of the ACE2 receptor

[7] = system: vimentin intermediate filaments; experiment: Immunodetection of vimentin intermediate filaments in MDBK cells; type: cell-based, bovine; conditions: 100 μM, 24 hours
Protocol: as §1

[8] = system: capsid protein of the Influenza H1N1 virus; experiment: BIACORE surface plasmon resonance interaction with immobilized peptide; type: binding
SARS-CoV-2 [9] = experiment: Prophylaxis in healthy contacts of COVID-19 patients (RT-qPCR of nasopharyngeal swabs); type: in vivo, human; conditions: Group II, intranasal drops 14 μg/mL daily for 6 days
Protocol: Healthy individuals, contacts of COVID-19 patients, were included in this study. Two groups of 25 healthy individuals exposed to a similar risk of contagion (Group I and Group II) were analyzed. Group II was treated daily, for 6 days, with the peptide identified in the Sequence Listing as SEQ ID NO: 1 as intranasal drops, at a concentration of 14 μg/mL. Nasopharyngeal swab samples were collected for SARS-CoV-2 detection by RT-qPCR (Roche). Sampling was carried out at the beginning of the study and 7 days after it began.

[10] = biological target: receptor binding-domain of the viral S protein (RBD) (Severe acute respiratory syndrome coronavirus 2, UniProt P0DTC2); experiment: BIACORE surface plasmon resonance interaction with immobilized peptide; parameters: species or system SARS-CoV-2
[11] = system: respiratory syncytial virus (RSV); experiment: Respiratory syncytial virus replication in bronchial HAE (RT-qPCR); type: cell-based; conditions: 50 μM, 10 days
[12] = system: CSF virus Margarita strain; conditions: 72 h

T1 sequence (P29990 1-100 limits assumed): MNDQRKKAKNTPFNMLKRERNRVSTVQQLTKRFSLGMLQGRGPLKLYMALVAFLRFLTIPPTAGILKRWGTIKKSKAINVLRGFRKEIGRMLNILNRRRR
T2 sequence (Q9BYF1 18-740): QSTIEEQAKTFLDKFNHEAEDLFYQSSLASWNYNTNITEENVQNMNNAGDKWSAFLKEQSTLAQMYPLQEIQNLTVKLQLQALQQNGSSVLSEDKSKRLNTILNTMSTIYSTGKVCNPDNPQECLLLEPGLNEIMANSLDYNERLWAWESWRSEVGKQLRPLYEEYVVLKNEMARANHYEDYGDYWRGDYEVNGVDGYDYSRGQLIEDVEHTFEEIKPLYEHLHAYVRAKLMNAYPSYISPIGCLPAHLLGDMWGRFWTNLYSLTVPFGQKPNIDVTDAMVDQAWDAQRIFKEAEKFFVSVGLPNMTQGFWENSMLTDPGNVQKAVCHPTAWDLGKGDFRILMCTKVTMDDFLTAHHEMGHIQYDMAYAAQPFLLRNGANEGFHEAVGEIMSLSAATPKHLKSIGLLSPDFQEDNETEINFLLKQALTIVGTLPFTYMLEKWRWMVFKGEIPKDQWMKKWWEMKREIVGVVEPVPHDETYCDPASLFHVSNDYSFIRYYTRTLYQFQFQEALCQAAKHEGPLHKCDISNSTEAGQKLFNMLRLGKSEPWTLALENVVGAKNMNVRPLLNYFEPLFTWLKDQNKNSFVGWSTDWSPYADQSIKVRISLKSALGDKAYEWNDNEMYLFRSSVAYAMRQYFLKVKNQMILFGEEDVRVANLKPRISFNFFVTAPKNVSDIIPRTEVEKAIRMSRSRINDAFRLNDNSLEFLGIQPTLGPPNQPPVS

In the case of RVTQMNLNDRLASLYDKV [SEQ ID NO: 1], the “SARS-CoV-2 negative patients/Total” value (SARS-CoV-2 [1]; day 2, Groups 3/4: Kaletra, IFN a2b + IFN y without/with peptide 2 mg/Kg s.c. 5 days) is reported as 0/20, the “SARS-CoV-2 negative patients/Total” value (SARS-CoV-2 [1]; day 2 after treatment onset, Groups 1/2: Kaletra, Heberon Alpha R without/with peptide 2 mg/Kg s.c. 5 days) is reported as 0/20 and the “SARS-CoV-2 negative patients/Total” value (SARS-CoV-2 [1]; day 4, Groups 1/2: Kaletra, Heberon Alpha R without/with peptide 2 mg/Kg s.c. 5 days) is reported as 16/20. The “SARS-CoV-2 negative patients/Total” value (SARS-CoV-2 [1]; day 4, Groups 3/4: Kaletra, IFN a2b + IFN y without/with peptide 2 mg/Kg s.c. 5 days) was 17/20, the “SARS-CoV-2 negative patients/Total” value (SARS-CoV-2 [1]; day 6, Groups 1/2: Kaletra, Heberon Alpha R without/with peptide 2 mg/Kg s.c. 5 days) was 20/20 and the “SARS-CoV-2 negative patients/Total” value (SARS-CoV-2 [1]; day 6, Groups 3/4: Kaletra, IFN a2b + IFN y without/with peptide 2 mg/Kg s.c. 5 days) was 20/20. For the same sequence, the “SARS-CoV-2 negative patients/Total” value (SARS-CoV-2 [1]; day 10, Groups 1/2: Kaletra, Heberon Alpha R without/with peptide 2 mg/Kg s.c. 5 days) was 20/20, the “SARS-CoV-2 negative patients/Total” value (SARS-CoV-2 [1]; day 10, Groups 3/4: Kaletra, IFN a2b + IFN y without/with peptide 2 mg/Kg s.c. 5 days) was 20/20 and the “SARS-CoV-2 negative patients/Total” value (SARS-CoV-2 [1]; day 14, Groups 1/2: Kaletra, Heberon Alpha R without/with peptide 2 mg/Kg s.c. 5 days) was 20/20. The “SARS-CoV-2 negative patients/Total” value (SARS-CoV-2 [1]; day 14, Groups 3/4: Kaletra, IFN a2b + IFN y without/with peptide 2 mg/Kg s.c. 5 days) was 20/20, the “SARS-CoV-2 negative patients/Total” value (SARS-CoV-2 [1]; day 20, Groups 1/2: Kaletra, Heberon Alpha R without/with peptide 2 mg/Kg s.c. 5 days) was 20/20 and the “SARS-CoV-2 negative patients/Total” value (SARS-CoV-2 [1]; day 20, Groups 3/4: Kaletra, IFN a2b + IFN y without/with peptide 2 mg/Kg s.c. 5 days) was 20/20. For the same sequence, the “patients negative for SARS-CoV-2” value (SARS-CoV-2 [1]; fourth day after treatment onset, Group 2 (peptide + Kaletra, chloroquine, Heberon Alpha R)) was 80%, the “patients negative for SARS-CoV-2” value (SARS-CoV-2 [1]; fourth day after treatment onset, Group 4 (peptide + Kaletra, chloroquine, IFN a2b + IFN y)) was 85% and the “patients negative for SARS-CoV-2” value (SARS-CoV-2 [1]; sixth day after treatment onset, Group 2) was 100%. For the same sequence, the “patients negative for SARS-CoV-2” value (SARS-CoV-2 [1]; sixth day after treatment onset, Group 4) was 100%, the “Influenza A H1N1 Inhib. %” value (Influenza A H1N1) was 86% and the “antiviral effect on bovine coronavirus infection (inhibition of CPE, viral RNA)” value [2] was “exerts an antiviral effect”. For the same sequence, the Kd [3] was 1.67 nM, the Rmax [3] was 409 RU and the interaction [3] was “concentration dependent interaction”. The kd [3] was 0.000413 s⁻¹, the kon ([3]; read-out: ka) was 247000 M⁻¹ s⁻¹ and the Inhibition % (SARS-CoV-2 [4]) was 83.3%. The CC50 at 96 h (in vitro) was over 400000 nM, the “damage to cell integrity after treatment” value [5] was “no damage to cell integrity was observed” and the Kd (pAb anti-SEQ ID NO: 1) was 115 nM. The ka (pAb anti-SEQ ID NO: 1) was 2750 M⁻¹ s⁻¹, the kd (pAb anti-SEQ ID NO: 1) was 0.000318 s⁻¹ and the interaction [6] was “neither the RBD nor the ACE2 peptide interact”. For the same sequence, the “damage to cell integrity after treatment” value [7] was “no damage to cell integrity was observed”, the Kd [8] was 769 nM and the interaction [8] was “showed interaction”. For the same sequence, the “SARS-CoV-2 positive cases (%)” value (SARS-CoV-2 [9]; Day 7) was 3.9%, the “SARS-CoV-2 positive cases/Total” value (SARS-CoV-2 [9]; Day 7) was 1/25 and the “SARS-CoV-2 positive cases (%)” value (SARS-CoV-2 [9]; Day of onset) was 0%. For the same sequence, the “SARS-CoV-2 positive cases/Total” value (SARS-CoV-2 [9]; Day of onset) was 0/25, the interaction [10] was “neither the RBD nor the ACE2 peptide interact” and the “Sincitial respiratory virus Inhib. %” value [11] was 80%. It also gave an IC50 [12] of 300 nM.

— patent US20250282828A1, “PEPTIDES FOR THE TREATMENT OF RESPIRATORY INFECTIONS OF VIRAL ORIGIN” (CENTRO DE INGENIERÍA GENÉTICA Y BIOTECNOLOGÍA, priority 2020, published 2025)
